“And” between values parts separate entries of the source, which are not always exact repeats. Identical values can stand only once. “Also recorded” adds a separate entry of the source. Like-named read-outs stand apart in the source and are kept apart here.
How the values were obtained:
Ebola virus replicon = assay: microbe, parasite or virus in culture; format: cell-based; conditions: Zaire ebolavirus
[1] = test system: avian influenza virus A/GuangZhou/99 (H9N2); assay: organism not typed; format: cell-based
[2] = test system: 2019-nCoV (2019BetaCoV/Wuhan/WIV04/2019 strain); assay: microbe, parasite or virus in culture; format: cell-based
2019-nCoV [3] = test system: 2019-nCoV; design: species or system K18-hACE male mice; conditions: mouse, in vivo
[4] = test system: 2019-nCoV, Ebola virus, and avian influenza virus A/GuangZhou/99 (H9N2); assay: organism not typed; format: cell-based; conditions: read-out: EC50 values (level reached)
[5] = test system: 2019-nCoV, Ebola virus, avian influenza virus A/GuangZhou/99 (H9N2); format: cell-based
in vitro = conditions: Syrian hamster
2019-nCoV [6] = test system: 2019-nCoV; design: species or system Syrian hamster; conditions: hamster, in vivo
A/WSN/33(H1N1) virus = test system: A/WSN/33(H1N1) virus; design: species or system BALB/c female mice; conditions: mouse, in vivo
[7] = BSR-T7/5, read-out: Ebola virus EC50 (µM)
[8] = BSR-T7/5, read-out: concentration at which replication efficiency of Ebola replicon is inhibited by 50%
[9] = MDCK, read-out: A/GuangZhou/99(H9N2) EC50 (µM)
[10] = unidentified influenza virus, H9N2, MDCK, read-out: concentration at which replication efficiency of avian influenza virus H9N2 is inhibited by 50%
[11] = Severe acute respiratory syndrome coronavirus 2, Vero C1008, 48 h
[12] = Severe acute respiratory syndrome coronavirus 2, Vero C1008, read-out: 2019-nCoV EC50 (µM)
[13] = Severe acute respiratory syndrome coronavirus 2, Vero C1008, read-out: concentration at which replication efficiency of 2019-nCoV is inhibited by 50%

| Structure (SMILES) | EC50 (Ebola virus replicon; [7]) | EC50 [1, 9] | EC50 [2, 12] | further results |
| --- | --- | --- | --- | --- |
| CN(/N=C/c1ccccc1C(=O)O)c1nc(-c2ccccc2Cl)cs1 [Compound 1] | 0.018 µM | 0.021 µM | 0.017 µM | EC50 (Ebola virus replicon; BSR-T7/5, 24 h): 0.018 µM; EC50 (Ebola virus replicon; [8]): 0.018 µM; EC50 ([1]; MDCK): 0.021 µM; EC50 [1, 10]: 0.02 µM; EC50 [2, 11]: 0.017 µM; EC50 [2, 13]: 0.017 µM; weight loss and death caused by viral infection (2019-nCoV [3]): did not significantly improve; also recorded: could not significantly improve; EC50 [4]: ~10 nM; therapeutic effect in combination with other antiviral drugs [5]: better therapeutic effects; CC50 (in vitro): 85800 nM; reduction of viral load in lung tissue (2019-nCoV [6]): more than 100 fold; viral infection-induced weight loss (2019-nCoV [6]): significantly slowed |
| CCN(/N=C/c1ccccc1C(=O)O)c1nc(-c2ccccc2Cl)cs1 [Compound 2] | 0.13 µM | 0.28 µM | 0.16 µM |  |
| CCCN(/N=C/c1ccccc1C(=O)O)c1nc(-c2ccccc2Cl)cs1 [Compound 3] | 5.42 µM | 2.38 µM | 2.35 µM |  |
| CC(C)N(/N=C/c1ccccc1C(=O)O)c1nc(-c2ccccc2Cl)cs1 [Compound 4] | 5.35 µM | 8.37 µM | 10.2 µM |  |
| CCC(C)N(/N=C/c1ccccc1C(=O)O)c1nc(-c2ccccc2Cl)cs1 (stereo not drawn) [Compound 5] | 89 µM | 45.4 µM | > 100 µM |  |
| CCCC(C)N(/N=C/c1ccccc1C(=O)O)c1nc(-c2ccccc2Cl)cs1 (stereo not drawn) [Compound 6] | 97 µM | 22.2 µM | > 100 µM |  |
| O=C(O)c1cc(C(F)(F)F)ccc1/C=N/Nc1nc(-c2ccccc2Cl)cs1 [Compound 8-1] | 1.14 µM | > 100 µM | 5.25 µM |  |
| CN(/N=C/c1ccc(C(F)(F)F)cc1C(=O)O)c1nc(-c2ccccc2Cl)cs1 [Compound 8] | 49 µM | > 100 µM | > 100 µM |  |
| Cc1ccc(/C=N/Nc2nc(-c3ccccc3Cl)cs2)c(C(=O)O)c1 [Compound 9-1] | 0.89 µM | 0.33 µM | 0.07 µM |  |
| Cc1ccc(/C=N/N(C)c2nc(-c3ccccc3Cl)cs2)c(C(=O)O)c1 [Compound 9] | 2.26 µM | 1.37 µM | 0.29 µM |  |
| O=C(O)c1cc(F)ccc1/C=N/Nc1nc(-c2ccccc2Cl)cs1 [Compound 10-1] | 0.97 µM | 0.33 µM | 0.11 µM |  |
| CN(/N=C/c1ccc(F)cc1C(=O)O)c1nc(-c2ccccc2Cl)cs1 [Compound 10] | 0.32 µM | 3.2 µM | 0.1 µM |  |
| Cc1ccc(/C=N/N(C)c2nc(-c3ccccc3)c(C)s2)c(C(=O)O)c1 [Compound 11] |  |  | > 100 µM |  |
| Cc1sc(N/N=C/c2ccccc2C(=O)O)nc1-c1ccccc1 [Compound 12-1] |  |  | 0.52 µM |  |
| Cc1sc(N(C)/N=C/c2ccccc2C(=O)O)nc1-c1ccccc1 [Compound 12] |  |  | 0.35 µM |  |
| Cc1sc(N(C)/N=C/c2ccccc2C(=O)O)nc1-c1ccccc1Cl [Compound 13] |  | 8.27 µM | > 100 µM |  |
| O=C(O)c1ccccc1/C=N/Nc1nc(-c2ccccc2Cl)cs1 [Compound 16] | 11.4 µM | 13.2 µM | 1.56 µM | EC50 (Ebola virus replicon; BSR-T7/5, 24 h): 11.4 µM; EC50 (Ebola virus replicon; [8]): 15 µM; EC50 ([1]; MDCK): 13.2 µM; EC50 [1, 10]: 13.2 µM; EC50 [2, 11]: 1.56 µM; EC50 [2, 13]: 1.55 µM; mice treated (survival) (A/WSN/33(H1N1) virus): 50%-100% and 50% and 100%; EC50 [4]: ~10 nM; therapeutic effect in combination with other antiviral drugs [5]: better therapeutic effects |
| O=C(O)c1cc(F)c(F)cc1/C=N/Nc1nc(-c2ccccc2Cl)cs1 [Compound 23-1] |  |  | 5.44 µM |  |
| O=C(O)c1ccccc1/C=N/Nc1nc(-c2cc(Cl)ccc2Cl)cs1 [Compound 55] | 5.4 µM | 4.06 µM | 1.02 µM |  |

Reference: patent US20230190713A1 (priority 2020, published 2023)
